Blank lines part the entries; values can stand above or below the compound they belong to.
Legend:
MRSA [1] = test: Broth microdilution MIC/MBC; format: cell-based, methicillin-resistant S. aureus; settings: Staphylococcus aureus; for MBC: 99.9% killing; for MIC: 24 h at 37° C.
Method: (§1) Broth microdilution tests were performed according to NCCLS guidelines. Serial two-fold dilutions of each imidazolium salt (from an original working solution which had been 0.22 μm sterile filtered) in Mueller-Hinton Broth (MHB) (100 μl) were prepared in 96-well micro-titre plates over the range 0.0000625-1% w/v. The inoculum to be tested was prepared by adjusting the turbidity of an actively overnight growing broth culture in MHB to an optical density at 550 nm equivalent to 1×10^8 CFU/ml. The suspension was further diluted to provide a final inoculum density of 2×10^5 CFU/ml in MHB as verified by total viable count. The inoculum to be tested (100 μl, 2×10^5 CFU ml^−1) was added to each well of the microdilution trays which were incubated aerobically for 24 h at 37° C. Positive and negative growth controls were included in every assay (6 replicates). After determining the MICs, minimum bactericidal concentrations (MBCs) were determined by spreading 20 μl of suspension from wells showing no growth onto MHA plates, which were then incubated for 24 h and examined for 99.9% killing.

E. coli PIII [2] = test: Broth microdilution MIC; format: cell-based; settings: Escherichia coli
Method: as §1

B. cenocepacia J2315 = test: Biofilm assay (Calgary Biofilm Device), MBEC; format: cell-based; settings: B. cenocepacia J2315 24 h biofilm, 24 h challenge
Method: (§2) Biofilms of each test organism were grown in the Calgary Biofilm Device (commercially available as the MBEC Assay™ for Physiology & Genetics, Innovotech Inc., Edmonton, Alberta, Canada). The device, a micro-titre plated based assay, consists of two parts; a microtitre plate containing the inoculated test medium and a polystyrene lid with 96 identical pegs on which the microbial biofilm forms under gyrorotary incubation. The biofilm assay was conducted according to the MBEC™ assay protocol as supplied by the manufacturer, with slight modifications. Inocula of each test organism were prepared in MHB as described above and adjusted to provide a final inoculum density of ˜10^7 CFU ml^−1 (as confirmed by viable count). 150 μl of the inoculated media was transferred to each well of the 96-well microtitre plate and the assay plate lid, bearing 96 pegs was placed into the microtitre plate. The MBEC assay plates were placed in a gyrorotary incubator (37° C., 95% relative humidity) for 24 h to permit growth and comparison of 24 h biofilms of each test strain. Positive and negative growth controls were included in each plate (6 replicates). Initial and 24 h planktonic viable counts were measured, as were 24 h biofilm counts, expressed as CFU peg^−1, according to manufacturers instructions. After 24 h, the peg lid of the MBEC assay plate was gently rinsed three times. After rinsing, the peg lid of the MBEC assay was transferred to a ‘challenge’ plate. Serial dilutions of each imidazolium salt were prepared in 200 μl of MHB containing various concentrations of IL in each well. Positive growth control and sterility control were included in each assay plate. […] Biofilms were dislodged into recovery media by sonication for 5 minutes and the peg lid discarded. The recovery plate is incubated overnight and visually checked after 24 h for turbidity. In addition, optical density measurements for each plate were recorded at 550 nm. Clear wells were taken as evidence of biofilm eradication and the MBEC value was assigned as the lowest concentration at which no growth was observed after 24 h incubation. Plates were incubated for a further 24 h to confirm biofilm eradication concentrations.

C. tropicalis NCTC 7393 = test: Biofilm assay (Calgary Biofilm Device), MBEC; format: cell-based; settings: C. tropicalis NCTC 7393 24 h biofilm, 24 h challenge
Method: as §2

E-MRSA 15 = test: Biofilm assay (Calgary Biofilm Device), MBEC; format: cell-based; settings: E-MRSA 15 24 h biofilm, 24 h challenge
Method: as §2

E. coli PIII [3] = test: Biofilm assay (Calgary Biofilm Device), MBEC; format: cell-based; settings: for MBEC: E. coli PIII 24 h biofilm, 24 h challenge; for percent weight to volume of ionic liquid that corresponds to the MBEC value: E. coli PIII biofilm
Method: as §2

K. aerogenes NCTC 7427 = test: Biofilm assay (Calgary Biofilm Device), MBEC; format: cell-based; settings: K. aerogenes NCTC 7427 24 h biofilm, 24 h challenge
Method: as §2

P. aeruginosa PA01 = test: Biofilm assay (Calgary Biofilm Device), MBEC; format: cell-based; settings: for MBEC: P. aeruginosa PA01 24 h biofilm, 24 h challenge; for percent weight to volume of ionic liquid that corresponds to the MBEC value: P. aeruginosa PA01 biofilm
Method: as §2

P. mirabilis NCTC 12442 = test: Biofilm assay (Calgary Biofilm Device), MBEC; format: cell-based; settings: P. mirabilis NCTC 12442 24 h biofilm, 24 h challenge
Method: as §2

S. aureus ATCC 29213 = test: Biofilm assay (Calgary Biofilm Device), MBEC; format: cell-based; settings: S. aureus ATCC 29213 24 h biofilm, 24 h challenge
Method: as §2

[4] = test system: S. epidermidis ATCC 35984; test: Biofilm assay (Calgary Biofilm Device), MBEC; format: cell-based; settings: for MBEC: S. epidermidis ATCC 35984 24 h biofilm, 24 h challenge; for percent weight to volume of ionic liquid that corresponds to the MBEC value: S. epidermidis ATCC 35984 biofilm
Method: as §2

MRSA [5] = test: Biofilm assay (Calgary Biofilm Device), MBEC; format: cell-based, methicillin-resistant S. aureus; settings: for MBEC: MRSA 24 h biofilm, 24 h challenge; for percent weight to volume of ionic liquid that corresponds to the MBEC value: MRSA biofilm
Method: as §2

MRSA [6] = test: Zone of inhibition on MRSA-seeded agar culture plates; format: cell-based, methicillin-resistant S. aureus; settings: 40 μL of ionic liquid applied to MRSA-seeded agar culture plates
Text: As used herein, CyMIMCI, refers to 1-alkyl-3-methyl-imidazolium chloride ionic liquids, wherein the alkyl group is a straight chain alkyl group having y carbon atoms.

Escherichia Coli = test: Kill kinetics, planktonic cell cultures; format: cell-based
Text: (§3) The kill kinetic data is provided in terms of the measured colony forming units per millilitre (CFU/mL) values, and is also provided graphically in FIGS. 9-11.

[7] = test system: Methicillin Resistant Staphylococcus Aureus (MRSA); test: Kill kinetics, planktonic cell cultures; format: cell-based
Text: as §3

[8] = test system: Staphylococcus Epidermidis; test: Kill kinetics, planktonic cell cultures; format: cell-based
Text: as §3

- MIC (MRSA [1]): 36 µM
- MIC (E. coli PIII [2]): 73 µM
Structure (SMILES): CCCCCCCCCCCCn1cc[n+](C)c1.[Cl-] [C12MIMCl, 1-dodecyl-3-methylimidazolium chloride]
- MBC (MRSA [1]): 290 µM
- MBEC (B. cenocepacia J2315): 2179 µM
- MBEC (C. tropicalis NCTC 7393): 8714 µM
- MBEC (E-MRSA 15): 272 µM
- MBEC (E. coli PIII [3]): 1089 µM
- percent weight to volume of ionic liquid that corresponds to the MBEC value (E. coli PIII [3]): (0.031) % w/v
- MBEC (K. aerogenes NCTC 7427): 2179 µM
- MBEC (P. aeruginosa PA01): 1089 µM
- percent weight to volume of ionic liquid that corresponds to the MBEC value (P. aeruginosa PA01): (0.031) % w/v
- MBEC (P. mirabilis NCTC 12442): 4357 µM
- MBEC (S. aureus ATCC 29213): 272 µM
- MBEC [4]: 272 µM
- percent weight to volume of ionic liquid that corresponds to the MBEC value [4]: (0.008) % w/v
- MBEC (MRSA [5]): 545 µM
- percent weight to volume of ionic liquid that corresponds to the MBEC value (MRSA [5]): (0.016) % w/v
- Zone Of Inhibition Radius (MRSA [6]): 17 mm
- colony forming units per millilitre (Escherichia Coli; 871 μM, 0 Minutes): 1.13 × 10^8 CFU/mL
- colony forming units per millilitre (Escherichia Coli; 871 μM, 5 Minutes): 0.00 CFU/mL
- colony forming units per millilitre (Escherichia Coli; 871 μM, 10 Minutes): 0.00 CFU/mL
- colony forming units per millilitre (Escherichia Coli; 871 μM, 20 Minutes): 0.00 CFU/mL
- colony forming units per millilitre (Escherichia Coli; 871 μM, 30 Minutes): 0.00 CFU/mL
- colony forming units per millilitre (Escherichia Coli; 871 μM, 45 Minutes): 0.00 CFU/mL
- colony forming units per millilitre ([7]; 290 μM, 0 Minutes): 2.08 × 10^8 CFU/mL
- colony forming units per millilitre ([7]; 290 μM, 5 Minutes): 2.75 × 10^5 CFU/mL
- colony forming units per millilitre ([7]; 290 μM, 10 Minutes): 0.00 CFU/mL
- colony forming units per millilitre ([7]; 290 μM, 20 Minutes): 0.00 CFU/mL
- colony forming units per millilitre ([7]; 290 μM, 30 Minutes): 0.00 CFU/mL
- colony forming units per millilitre ([7]; 290 μM, 45 Minutes): 0.00 CFU/mL
- colony forming units per millilitre ([8]; 145 μM, 0 Minutes): 6.25 × 10^7 CFU/mL
- colony forming units per millilitre ([8]; 145 μM, 5 Minutes): 1.67 × 10^2 CFU/mL
- colony forming units per millilitre ([8]; 145 μM, 10 Minutes): 0.00 CFU/mL
- colony forming units per millilitre ([8]; 145 μM, 20 Minutes): 0.00 CFU/mL
- colony forming units per millilitre ([8]; 145 μM, 30 Minutes): 0.00 CFU/mL
- colony forming units per millilitre ([8]; 145 μM, 45 Minutes): 0.00 CFU/mL

- MIC (MRSA [1]): 16 µM
- MIC (E. coli PIII [2]): 33 µM
Structure (SMILES): CCCCCCCCCCCCCCn1cc[n+](C)c1.[Cl-] [C14MIMCl, 1-tetradecyl-3-methylimidazolium chloride]
- MBC (MRSA [1]): 66 µM
- MBEC (B. cenocepacia J2315): 496 µM
- MBEC (C. tropicalis NCTC 7393): 248 µM
- MBEC (E-MRSA 15): 248 µM
- MBEC (E. coli PIII [3]): 124 µM
- percent weight to volume of ionic liquid that corresponds to the MBEC value (E. coli PIII [3]): (0.004 % w/v
- MBEC (K. aerogenes NCTC 7427): 248 µM
- MBEC (P. aeruginosa PA01): 496 µM
- percent weight to volume of ionic liquid that corresponds to the MBEC value (P. aeruginosa PA01): (0.016 % w/v
- MBEC (P. mirabilis NCTC 12442): 1984 µM
- MBEC (S. aureus ATCC 29213): 124 µM
- MBEC [4]: 124 µM
- percent weight to volume of ionic liquid that corresponds to the MBEC value [4]: (0.004 % w/v
- MBEC (MRSA [5]): 124 µM
- percent weight to volume of ionic liquid that corresponds to the MBEC value (MRSA [5]): (0.004 % w/v
- Zone Of Inhibition Radius (MRSA [6]): 10 mm
- colony forming units per millilitre (Escherichia Coli; 265 μM, 0 Minutes): 1.67 × 10^8 CFU/mL
- colony forming units per millilitre (Escherichia Coli; 265 μM, 5 Minutes): 1.07 × 10^4 CFU/mL
- colony forming units per millilitre (Escherichia Coli; 265 μM, 10 Minutes): 2.33 × 10^3 CFU/mL
- colony forming units per millilitre (Escherichia Coli; 265 μM, 20 Minutes): 0.00 CFU/mL
- colony forming units per millilitre (Escherichia Coli; 265 μM, 30 Minutes): 0.00 CFU/mL
- colony forming units per millilitre (Escherichia Coli; 265 μM, 45 Minutes): 0.00 CFU/mL
- colony forming units per millilitre ([7]; 40 μM, 0 Minutes): 1.52 × 10^8 CFU/mL
- colony forming units per millilitre ([7]; 40 μM, 5 Minutes): 1.78 × 10^5 CFU/mL
- colony forming units per millilitre ([7]; 40 μM, 10 Minutes): 2.75 × 10^3 CFU/mL
- colony forming units per millilitre ([7]; 40 μM, 20 Minutes): 3.33 × 10^2 CFU/mL
- colony forming units per millilitre ([7]; 40 μM, 30 Minutes): 0.00 CFU/mL
- colony forming units per millilitre ([7]; 40 μM, 45 Minutes): 0.00 CFU/mL
- colony forming units per millilitre ([8]; 40 μM, 0 Minutes): 8.67 × 10^7 CFU/mL
- colony forming units per millilitre ([8]; 40 μM, 5 Minutes): 0.00 CFU/mL
- colony forming units per millilitre ([8]; 40 μM, 10 Minutes): 0.00 CFU/mL
- colony forming units per millilitre ([8]; 40 μM, 20 Minutes): 0.00 CFU/mL
- colony forming units per millilitre ([8]; 40 μM, 30 Minutes): 0.00 CFU/mL
- colony forming units per millilitre ([8]; 40 μM, 45 Minutes): 0.00 CFU/mL

Source: US20110144079A1, “ANTIMICROBIAL SYSTEM” (priority 2008, published 2011)
